As a reminder, the IC50 is the concentration that inhibits the measured activity by half.

In patent US8563542B2 (Cyclacel Limited, priority 2007, dated 2013) one finds IC50 data, which are given here for 20 compounds.

The test concerns the target T1, AA (Homo sapiens, UniProt O14965).
T1 sequence (O14965 1-403): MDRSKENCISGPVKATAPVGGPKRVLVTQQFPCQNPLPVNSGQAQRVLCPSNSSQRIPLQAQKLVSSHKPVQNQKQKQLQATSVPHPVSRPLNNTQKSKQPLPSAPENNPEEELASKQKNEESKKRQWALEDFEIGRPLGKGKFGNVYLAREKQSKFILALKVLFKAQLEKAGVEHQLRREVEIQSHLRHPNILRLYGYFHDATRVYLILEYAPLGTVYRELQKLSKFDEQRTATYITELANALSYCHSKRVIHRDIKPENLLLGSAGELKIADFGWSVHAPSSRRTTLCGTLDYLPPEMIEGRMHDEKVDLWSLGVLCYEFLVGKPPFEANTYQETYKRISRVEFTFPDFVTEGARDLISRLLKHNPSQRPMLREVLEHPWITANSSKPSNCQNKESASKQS
Description: AA IC50 (Table 1; no method given). In kind it is biochemical. As to conditions: Table 2, AurA IC50; class symbols; read-out: AurA IC50.
As for `CCN1C(=O)CCN(C(C)(C)C)c2nc(Nc3ccc4c(c3)CS(=O)(=O)C4)ncc21` [compound 122, 9-tert-Butyl-2-(2,2-dioxo-2,3-dihydro-1H-2lambda*6*-benzo[c]thiophen-5-ylamino)-5-ethyl-5,7,8,9-tetrahydro-pyrimido[4,5-b][1,4]diazepin-6-one], the IC50 was less than 1000 nM.

For the compound `CCN1C(=O)CCNc2nc(Nc3ccc4c(c3)CS(=O)(=O)C4)ncc21` [compound 126, 2-(2,2-Dioxo-2,3-dihydro-1H-2lambda*6*- benzo[c]thiophen-5-ylamino)-5-ethyl-5,7,8,9-tetrahydro-pyrimido[4,5-b][1,4]diazepin-6-one], the IC50 was less than 10000 nM.

Consider `COc1ccccc1N1CCC(=O)N(C)c2cnc(Nc3ccc4c(c3)CS(=O)(=O)C4)nc21` [compound 133, 2-(2,2-Dioxo-2,3-dihydro-1H-2lambda*6*- benzo[c]thiophen-5-ylamino)-9-(2-methoxy-phenyl)-5-methyl-5,7,8,9-tetrahydro-pyrimido[4,5-b][1,4]diazepin-6-one], for which the IC50 is less than 1000 nM.

Turning to `Cc1ccccc1N1CCC(=O)N(C)c2cnc(Nc3ccc4c(c3)CS(=O)(=O)C4)nc21` [compound 134, 2-(2,2-Dioxo-2,3-dihydro-1H-2lambda*6*- benzo[c]thiophen-5-ylamino)-5-methyl-9-o-tolyl-5,7,8,9-tetrahydro-pyrimido[4,5-b][1,4]diazepin-6-one], the concentration for half-maximal inhibition (IC50) is less than 1000 nM.

For the compound `CN1C(=O)CCN(c2ccccc2Cl)c2nc(Nc3ccc4c(c3)CS(=O)(=O)C4)ncc21` [compound 135, 9-(2-Chloro-phenyl)-2-(2,2-dioxo-2,3-dihydro-1H-2lambda*6*-benzo[c]thiophen-5-ylamino)-5-methyl-5,7,8,9-tetrahydro-pyrimido[4,5-b][1,4]diazepin-6-one], the IC50 is less than 1000 nM.

On to `COc1cccc(N2CCC(=O)N(C)c3cnc(Nc4ccc5c(c4)CS(=O)(=O)C5)nc32)c1` [compound 136, 2-(2,2-Dioxo-2,3-dihydro-1H-2lambda*6*- benzo[c]thiophen-5-ylamino)-9-(3-methoxy-phenyl)-5-methyl-5,7,8,9-tetrahydro-pyrimido[4,5-b][1,4]diazepin-6-one], for which the IC50 is less than 1000 nM.

`CC(Cc1c[nH]c2ccccc12)Nc1ncc2c(n1)N(C1CCCC1)CCC(=O)N2C` (centres unmarked) [compound 175, 9-Cyclopentyl-2-[2-(1H-indo1-3-yl)-1-methyl-ethylamino]-5-methyl-5,7,8,9-tetrahydro-pyrimido[4,5-b][1,4]diazepin-6-one]: the 50% inhibitory concentration (IC50) was less than 10000 nM.

For the compound `COc1ccc(N2CCN(c3ncc4c(n3)N(C3CCCC3)CCC(=O)N4C)CC2)cc1` [compound 213, 9-Cyclopentyl-2-[4-(4-methoxy-phenyl)-piperazin-1-yl]-5-methyl-5,7,8,9-tetrahydro-pyrimido[4,5-b][1,4]diazepin-6-one], the IC50 is less than 10000 nM.

As for `CC(=O)Nc1ccc(Nc2ncc3c(n2)N(C2CCCC2)CCC(=O)N3C)cc1C(F)(F)F` [compound 286, N-[4-(9-Cyclopentyl-5-methyl-6-oxo-6,7,8,9-tetrahydro-5H-pyrimido[4,5-b][1,4]diazepin-2-ylamino)-2-trifluoromethyl-phenyl]-acetamide], the IC50 was less than 1000 nM.

`Cc1cc(Nc2ncc3c(n2)N(C2CCCC2)CCC(=O)N3C)ccc1N(S(C)(=O)=O)S(C)(=O)=O` [compound 288]: the IC50 was less than 100 nM.

With `CN1C(=O)CCN(C2CCCC2)c2nc(Nc3ccc(S(=O)(=O)NC4CCS(=O)(=O)C4)cc3)ncc21` (centres unmarked) [compound 325, 4-(9-Cyclopentyl-5-methyl-6-oxo-6,7,8,9-tetrahydro-5H-pyrimido[4,5-b][1,4]diazepin-2-ylamino)-N-(1,1-dioxo-tetrahydro-1lambda*6*- thiophen-3-yl)-benzenesulfonamide], the IC50 is less than 1000 nM.

With `COc1ccc(N2CCC(=O)N(C)c3cnc(Nc4ccc(NC(=O)C5CC5)c(C)c4)nc32)cc1` [compound 327, Cyclopropanecarboxylic acid {4-[9-(4-methoxy-phenyl)-5-methyl-6-oxo-6,7,8,9-tetrahydro-5H-pyrimido[4,5-b][1,4]diazepin-2-ylamino]-2-methyl-phenyl}-amide], the IC50 was less than 100 nM.

Take `CCN1C(=O)CCN(c2ccc(C)cc2)c2nc(Nc3ccc(NC(=O)C4CC4)c(C)c3)ncc21` [compound 328, Cyclopropanecarboxylic acid [4-(5-ethyl-6-oxo-9-p-tolyl-6,7,8,9-tetrahydro-5H-pyrimido[4,5-b][1,4]diazepin-2-ylamino)-2-methyl-phenyl]-amide]: the IC50 is less than 10000 nM.

In the case of `Cc1cc(Nc2ncc3c(n2)N(c2c(F)cccc2F)CCC(=O)N3C)ccc1NC(=O)C1CC1` [compound 329, Cyclopropanecarboxylic acid {4-[9-(2,6-difluoro-phenyl)-5-methyl-6-oxo-6,7,8,9-tetrahydro-5H-pyrimido[4,5-b][1,4]diazepin-2-ylamino]-2-methyl-phenyl}amide], the concentration for half-maximal inhibition (IC50) was less than 1000 nM.

For `CCN1C(=O)CCN(c2ccc(OC)cc2)c2nc(Nc3ccc(NC(=O)C4CC4)c(C)c3)ncc21` [compound 330, Cyclopropanecarboxylic acid {4-[5-ethyl-9-(4-methoxy-phenyl)-6-oxo-6,7,8,9-tetrahydro-5H-pyrimido[4,5-b][1,4]diazepin-2-ylamino]-2-methyl-phenyl}-amide], the IC50 was less than 10000 nM.

In the case of `CCN1C(=O)CCN(c2ccc(C)cc2)c2nc(Nc3ccc4c(c3)CS(=O)(=O)C4)ncc21` [compound 331, 2-(2,2-Dioxo-2,3-dihydro-1H-2lambda*6*- benzo[c]thiophen-5-ylamino)-5-ethyl-9-p-tolyl-5,7,8,9-tetrahydro-pyrimido[4,5-b][1,4]diazepin-6-one], the IC50 was less than 100 nM.

For `COc1ccc(N2CCC(=O)N(C)c3cnc(Nc4ccc5c(c4)CS(=O)(=O)C5)nc32)cc1` [compound 332, 2-(2,2-Dioxo-2,3-dihydro-1H-2lambda*6*- benzo[c]thiophen-5-ylamino)-9-(4-methoxy-phenyl)-5-methyl-5,7,8,9-tetrahydro-pyrimido[4,5-b][1,4]diazepin-6-one], the IC50 was less than 100 nM.

For `CCN1C(=O)CCN(c2ccc(OC)cc2)c2nc(Nc3ccc4c(c3)CS(=O)(=O)C4)ncc21` [compound 333, 2-(2,2-Dioxo-2,3-dihydro-1H-2lambda*6*- benzo[c]thiophen-5-ylamino)-5-ethyl-9-(4-methoxy-phenyl)-5,7,8,9-tetrahydro-pyrimido[4,5-b][1,4]diazepin-6-one], the IC50 is less than 100 nM.

`CN1C(=O)CCN(c2ccc(C(C)(C)C)cc2)c2nc(Nc3ccc4c(c3)CS(=O)(=O)C4)ncc21` [compound 334, 9-(4-tert-Butyl-phenyl)-2-(2,2-dioxo-2,3-dihydro-1H-2lambda*6*-benzo[c]thiophen-5-ylamino)-5-methyl-5,7,8,9-tetrahydro-pyrimido[4,5-b][1,4]diazepin-6-one]: the IC50 is less than 10000 nM.

Take `CCN1C(=O)CCN(c2ccc(C(C)(C)C)cc2)c2nc(Nc3ccc4c(c3)CS(=O)(=O)C4)ncc21` [compound 335, 9-(4-tert-Butyl-phenyl)-2-(2,2-dioxo-2,3-dihydro-1H-2lambda*6*-benzo[c]thiophen-5-ylamino)-5-ethyl-5,7,8,9-tetrahydro-pyrimido[4,5-b][1,4]diazepin-6-one]: the IC50 was less than 10000 nM.
